This assay deals with Endothelial lipase (EL) (Homo sapiens (Human), UniProt Q9Y5X9). In words: Endothelial lipase (EL) enzymatic assay with fluorescent substrate A10070 in DMPG vesicles. The format is biochemical. The note with it: conditioned media from HT-1080 cells overexpressing endogenous EL; 20 min preincubation at 37° C.; read-out: HLE_EL_CRC IC50. The method, then:
Endothelial lipase activity was measured using a fluorescent substrate, A10070, (Invitrogen, CA) doped into an artificial vesicle containing DMPG (Avanti Polar Lipids) as the excipient. Vesicles were prepared by combining 285 uL of 1 mM DMPG in a 1:1 mixture of MeOH and CHCl3 with 15 uL of 1 mM A10070 in a 1:1 mixture of MeOH and CHCl3. The mixture was dried under nitrogen and resuspended in 150 uL of 50 mM HEPES pH 8.0 buffer containing 100 mM NaCl and 0.2 mM EDTA. The sample was allowed to sit at rt for 15 min and then was sonicated 3×4 mins on ice with a Branson Sonicator using duty cycle 1. This preparation provides vesicles with a mole fraction of 0.05 for the FRET substrate.
The enzymatic assay was measured using white, opaque 96-well half area plates. Each well contained 60 uL of assay buffer (50 mM HEPES pH 8.0, 50 mM NaCl and 1 mM CaCl2) and 2 ul of a DMSO solution containing compound of interest. Conditioned media obtained from HT-1080 cells, which were transformed by RAGE technology (Athersys) to overexpress endogenous EL, was added and the reaction was allowed to incubate for 20 min at 37° C. with gentle agitation. The reaction was started by the addition of 20 uL of a 1:4 dilution of vesicles. The final total reaction volume was 100 uL. The reaction rates were measured on a Gemini plate reader with an excitation wavelength of 488 nm and a emission of 530 nm. Readings were taken every 20 seconds for 10 min with agitation between each reading. The slope of the linear portion of the readout was used to calculate the rate of the reaction.

pIC50: −log10 of the molar value.

Endothelial lipase (EL), sequence (Q9Y5X9 21-500): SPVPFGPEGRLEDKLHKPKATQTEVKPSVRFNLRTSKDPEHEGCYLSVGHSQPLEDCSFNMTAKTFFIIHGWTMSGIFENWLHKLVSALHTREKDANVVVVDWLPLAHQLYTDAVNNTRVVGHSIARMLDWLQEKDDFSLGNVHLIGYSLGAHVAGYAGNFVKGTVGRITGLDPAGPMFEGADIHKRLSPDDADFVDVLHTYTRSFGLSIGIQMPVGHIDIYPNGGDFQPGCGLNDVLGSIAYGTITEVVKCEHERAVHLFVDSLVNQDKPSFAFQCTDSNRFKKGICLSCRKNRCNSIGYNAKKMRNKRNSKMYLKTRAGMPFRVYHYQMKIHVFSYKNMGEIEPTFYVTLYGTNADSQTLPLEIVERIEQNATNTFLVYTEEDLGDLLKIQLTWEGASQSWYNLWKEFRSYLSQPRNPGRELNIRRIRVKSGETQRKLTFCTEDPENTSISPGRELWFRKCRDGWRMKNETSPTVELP

Turning to `Cn1ccc(C(=O)NCc2ccc(Oc3ccc(F)cc3)cc2)c(O)c1=O` [Example 16, N-(4-(4-fluorophenoxy)benzyl)-3-hydroxy-1-methyl-2-oxo-1,2-dihydropyridine-4-carboxamide], the negative-log IC50 (pIC50) is 8.00. Take `Cn1ccc(C(=O)NCc2ccccc2N2CCCCC2)c(O)c1=O` [Example 29, 3-hydroxy-1-methyl-2-oxo-N-(2-(piperidin-1-yl)benzyl)-1,2-dihydropyridine-4-carboxamide]: the negative-log IC50 (pIC50) is 5.18.

Consider `O=C(N[C@H]1CC[C@@H](c2ccccc2)CC1)c1ccn(CCC(F)(F)F)c(=O)c1O` [Example 37, 3-hydroxy-2-oxo-N-(cis-4-phenylcyclohexyl)-1-(3,3,3-trifluoropropyl)-1,2-dihydropyridine-4-carboxamide], for which the pIC50 is 6.45. The figure for `Cn1c(Cl)cc(C(=O)NC2CCC(c3ccccc3)CC2)c(O)c1=O` (stereo not shown) [Example 44, 6-chloro-3-hydroxy-1-methyl-2-oxo-N-(4-phenylcyclohexyl)-1,2-dihydropyridine-4-carboxamide] is 6.32; for `Cn1c(C(F)(F)F)cc(C(=O)NCc2cccc(-c3ccc(Cl)cc3)c2)c(O)c1=O` [Example 32, N-((4′-chlorobiphenyl-3-yl)methyl)-3-hydroxy-1-methyl-2-oxo-6-(trifluoromethyl)-1,2-dihydropyridine-4-carboxamide] it is 7.95; for `O=C(NCc1ccccc1-c1ccc(F)cc1)c1ccn(CC(F)(F)F)c(=O)c1O` [Example 41, N-((4′-fluorobiphenyl-2-yl)methyl)-3-hydroxy-2-oxo-1-(2,2,2-trifluoroethyl)-1,2-dihydropyridine-4-] it is 7.96. The value for `O=C(N[C@H]1CC[C@@H](c2ccccc2)CC1)c1ccn(CCCC(F)(F)F)c(=O)c1O` [Example 39, 3-hydroxy-2-oxo-N-(cis-4-phenylcyclohexyl)-1-(4,4,4-trifluorobutyl)-1,2-dihydropyridine-4-carboxamide] was 6.16; that for `O=C(NC1CCN(c2ccc(F)cc2)CC1)c1ccn(CC(F)(F)F)c(=O)c1O` [Example 33, N-(1-(4-fluorophenyl)piperidin-4-yl)-3-hydroxy-2-oxo-1-(2,2,2-trifluoroethyl)-1,2-dihydropyridine-4-carboxamide] was 5.34; that for `Cn1ccc(C(=O)NCc2cccc(-c3ccccc3)c2)c(O)c1=O` [Example 21, N-(biphenyl-3-ylmethyl)-3-hydroxy-1-methyl-2-oxo-1,2-dihydropyridine-4-carboxamide] was 7.75. The value for `Cn1ccc(C(=O)NCc2ccccc2N2CCCC2)c(O)c1=O` [Example 31, 3-hydroxy-1-methyl-2-oxo-N-(2-(pyrrolidin-1-yl)benzyl)-1,2-dihydropyridine-4-carboxamide] was 5.19.

What is called pIC50 is the IC50 on a negative log10 scale, so that one unit is a factor of ten.

These data come from patent US8993557B2, “Pyridinedione carboxamide inhibitors of endothelial lipase” (Bristol-Myers Squibb Company, priority 2011, dated 2015).
